# ChEMBL document CHEMBL5661982 (Mol Cancer Ther, 2012)
# Calls of active or inactive are those of the source. The calls are words filed in the database; no cut-off is given here.
# What was measured:
# DLD-1 = assay: Antiproliferative activity against human DLD-1 cells over expressing c-Met assessed as reduction in cell viability after 48 to 72 hrs by MTT assay
# U-87MG ATCC [1] = conditions: Homo sapiens, dose 5-50 mg/kg, route po, time 3.0 day
# GTL 16 cell line [2] = assay: Antitumor activity against human GTL 16 cells xenografted in athymic nu/nu mouse assessed as tumor growth inhibition at 5 mg/kg, sc minipump administered for 14 days relative to control; conditions: GTL 16, 336 h, read-out: TGI
# NCI-H292 = assay: Antitumor activity against human NCI-H292 cells xenografted in athymic nu/nu mouse assessed as tumor growth inhibition at 50 mg/kg/day, po for 31 days relative to control; conditions: 744 h, read-out: TGI
# [3] = target: Tyrosine-protein kinase receptor UFO (Homo sapiens, UniProt P30530); assay: Inhibition of AXL expressed in HEK293 cells assessed as reduction in Gas6-stimulated AXL phosphorylation incubated for 1 hr by sandwich ELISA analysis
# GTL 16 [4] = conditions: Homo sapiens, dose 0.3-10 mg/kg, route po, time 4.0 day
# U-87 MG [5] = assay: Antitumor activity against human U-87 MG cells xenografted in athymic nu/nu mouse assessed as tumor growth inhibition at 0.3 mg/kg, po for 9 days relative to control; conditions: 216 h, read-out: TGI
# PC-3 = assay: Antiproliferative activity against human PC-3 cells over expressing c-Met assessed as reduction in cell viability after 48 to 72 hrs by MTT assay
# COLO 205 = assay: Antiproliferative activity against human COLO 205 cells over expressing c-Met assessed as reduction in cell viability after 48 to 72 hrs by MTT assay
# HT-29 [6] = assay: Antiproliferative activity against human HT-29 cells over expressing c-Met assessed as reduction in cell viability after 48 to 72 hrs by MTT assay
# MDA-MB-231 = assay: Antitumor activity against human MDA-MB-231 cells xenografted in athymic nu/nu mouse assessed as tumor growth inhibition at 40 mg/kg/day, po for 14 days relative to control; conditions: MDA-MB-231, po, 336 h, read-out: TGI
# HT-29 [7] = assay: Antitumor activity against human HT-29 cells transfected with RON shRNA xenografted in athymic nu/nu mouse assessed as tumor growth inhibition at 50 mg/kg/day, po for 21 days relative to control; conditions: HT-29, po, 504 h, read-out: TGI
# GTL 16 [8] = conditions: Homo sapiens, dose 0.3-10 mg/kg, route po, time 4.0 day; remark: listed apart in the source
# [9] = Inhibition of human c-Met V1092I mutant expressed in mouse NIH3T3 cells assessed as reduction in HGF-stimulated c-Met phosphorylation incubated for 1 hr by ELISA analysis; conditions: NIH3T3, 1 h
# SW-620 [10] = assay: Antitumor activity against human SW620 cells xenografted in athymic nu/nu mouse assessed as tumor growth inhibition at 40 mg/kg/day, po for 25 days relative to control; conditions: SW-620, po, 600 h, read-out: TGI
# HUVEC [11] = assay: Antiproliferative activity against HGF-stimulated HUVEC cells assessed as reduction in cell viability after 48 to 72 hrs by MTT assay; conditions: Homo sapiens
# [12] = target: Tyrosine-protein kinase Mer (Homo sapiens, UniProt Q12866); assay: Inhibition of MER expressed in HEK293 cells assessed as reduction in Gas6-stimulated MER phosphorylation incubated for 1 hr by sandwich ELISA analysis
# GTL 16 cell line [13] = assay: Antitumor activity against human GTL 16 cells xenografted in athymic nu/nu mouse assessed as tumor growth inhibition at 0.5 mg/kg, sc minipump administered for 14 days relative to control; conditions: GTL 16, 336 h, read-out: TGI
# U-87MG ATCC [14] = conditions: Homo sapiens, dose 5-50 mg/kg, route po, time 3.0 day; remark: listed apart in the source
# NCI-H441 [15] = assay: Inhibition of cell invasion in HGF-stimulated human NCI-H441 cells over expressing c-Met incubated for 48 hrs by Matrigel based analysis; conditions: NCI-H441, 48 h
# U-87 MG [16] = assay: Antiproliferative activity against human U-87 MG cells over expressing c-Met assessed as reduction in cell viability after 48 to 72 hrs by MTT assay
# SW-620 [17] = conditions: Homo sapiens, dose 40.0 mg/kg/day, route po, time 25.0 day
# GTL 16 cell line [18] = assay: Antitumor activity against human GTL 16 cells xenografted in athymic nu/nu mouse assessed as tumor growth inhibition at 1.5 mg/kg, sc minipump administered for 14 days relative to control; conditions: GTL 16, 336 h, read-out: TGI
# U-87 MG [19] = assay: Antitumor activity against human U-87 MG cells xenografted in athymic nu/nu mouse assessed as tumor growth inhibition at 30 mg/kg, po for 9 days relative to control; conditions: 216 h, read-out: TGI
# NCI-H441 [20] = assay: Inhibition of cell migration in HGF-stimulated human NCI-H441 cells over expressing c-Met incubated for 48 hrs by Matrigel based analysis; conditions: NCI-H441, 48 h
# HUVEC [21] = assay: Inhibition of cell invasion in HGF-stimulated HUVEC cells incubated for 48 hrs by Matrigel based analysis; conditions: Homo sapiens
# MDA-MB-468 = assay: Antiproliferative activity against human MDA-MB-468 cells over expressing c-Met assessed as reduction in cell viability after 48 to 72 hrs by MTT assay
# GTL 16 [22] = conditions: Homo sapiens, dose 3-30 mg/kg, route po, time 4.0 day
# GTL 16 [23] = conditions: Homo sapiens, dose 0.3-10 mg/kg, route po, time 4.0 day; remark: listed apart in the source
# GTL 16 cell line [24] = assay: Antitumor activity against human GTL 16 cells xenografted in athymic nu/nu mouse assessed as tumor growth inhibition at 10 mg/kg, po administered for 16 days relative to control; conditions: GTL 16, po, 384 h, read-out: TGI
# SW-620 [25] = assay: Antiproliferative activity against human SW620 cells over expressing c-Met assessed as reduction in cell viability after 48 to 72 hrs by MTT assay
# [26] = target: Macrophage-stimulating protein receptor (Mus musculus, UniProt Q62190); assay: Inhibition of Ron expressed in mouse NIH3T3 cells assessed as reduction in MSP-stimulated RON phosphorylation incubated for 1 hr by sandwich ELISA analysis
# U-87MG ATCC [27] = conditions: Homo sapiens, dose 5-50 mg/kg, route po, time 3.0 day; remark: listed apart in the source
# Chain of Tyrosine-protein kinase Mer (Q12866 whole entry): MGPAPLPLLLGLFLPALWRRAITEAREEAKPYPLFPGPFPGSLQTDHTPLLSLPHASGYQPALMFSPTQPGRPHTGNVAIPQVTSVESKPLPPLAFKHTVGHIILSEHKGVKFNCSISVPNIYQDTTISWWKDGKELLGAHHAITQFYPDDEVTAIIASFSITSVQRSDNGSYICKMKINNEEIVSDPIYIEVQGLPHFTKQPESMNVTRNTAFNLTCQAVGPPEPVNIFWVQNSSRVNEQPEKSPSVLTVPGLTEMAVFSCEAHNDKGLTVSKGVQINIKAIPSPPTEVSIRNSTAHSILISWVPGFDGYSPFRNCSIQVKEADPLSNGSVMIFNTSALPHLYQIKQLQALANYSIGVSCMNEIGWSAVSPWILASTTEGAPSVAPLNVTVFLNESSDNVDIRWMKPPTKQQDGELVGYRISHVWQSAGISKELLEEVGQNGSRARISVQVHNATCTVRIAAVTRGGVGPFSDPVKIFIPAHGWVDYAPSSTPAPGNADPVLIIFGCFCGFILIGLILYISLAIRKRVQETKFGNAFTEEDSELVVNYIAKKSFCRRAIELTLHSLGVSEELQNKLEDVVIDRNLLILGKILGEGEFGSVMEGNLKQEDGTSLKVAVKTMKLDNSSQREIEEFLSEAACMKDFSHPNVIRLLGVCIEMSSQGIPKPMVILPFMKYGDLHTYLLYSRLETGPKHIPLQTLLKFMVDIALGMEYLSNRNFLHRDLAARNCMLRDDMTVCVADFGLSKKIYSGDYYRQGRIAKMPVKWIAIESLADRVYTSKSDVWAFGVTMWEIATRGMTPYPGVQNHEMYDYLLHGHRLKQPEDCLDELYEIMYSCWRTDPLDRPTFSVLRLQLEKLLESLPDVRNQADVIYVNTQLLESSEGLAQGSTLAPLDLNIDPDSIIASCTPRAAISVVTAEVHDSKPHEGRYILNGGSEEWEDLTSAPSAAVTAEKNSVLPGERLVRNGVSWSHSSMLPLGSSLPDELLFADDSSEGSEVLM
# Chain of Macrophage-stimulating protein receptor (Q62190 25-305 limits assumed): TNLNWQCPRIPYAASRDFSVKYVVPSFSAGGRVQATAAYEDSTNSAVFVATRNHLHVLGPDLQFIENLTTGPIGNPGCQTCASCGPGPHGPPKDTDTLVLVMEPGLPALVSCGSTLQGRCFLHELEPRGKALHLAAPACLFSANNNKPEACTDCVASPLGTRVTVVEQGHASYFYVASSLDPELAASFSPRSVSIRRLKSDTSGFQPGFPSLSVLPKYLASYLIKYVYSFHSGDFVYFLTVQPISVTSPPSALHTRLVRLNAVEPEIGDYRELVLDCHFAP
# Chain of Macrophage-stimulating protein receptor (Q62190 311-1378 limits assumed): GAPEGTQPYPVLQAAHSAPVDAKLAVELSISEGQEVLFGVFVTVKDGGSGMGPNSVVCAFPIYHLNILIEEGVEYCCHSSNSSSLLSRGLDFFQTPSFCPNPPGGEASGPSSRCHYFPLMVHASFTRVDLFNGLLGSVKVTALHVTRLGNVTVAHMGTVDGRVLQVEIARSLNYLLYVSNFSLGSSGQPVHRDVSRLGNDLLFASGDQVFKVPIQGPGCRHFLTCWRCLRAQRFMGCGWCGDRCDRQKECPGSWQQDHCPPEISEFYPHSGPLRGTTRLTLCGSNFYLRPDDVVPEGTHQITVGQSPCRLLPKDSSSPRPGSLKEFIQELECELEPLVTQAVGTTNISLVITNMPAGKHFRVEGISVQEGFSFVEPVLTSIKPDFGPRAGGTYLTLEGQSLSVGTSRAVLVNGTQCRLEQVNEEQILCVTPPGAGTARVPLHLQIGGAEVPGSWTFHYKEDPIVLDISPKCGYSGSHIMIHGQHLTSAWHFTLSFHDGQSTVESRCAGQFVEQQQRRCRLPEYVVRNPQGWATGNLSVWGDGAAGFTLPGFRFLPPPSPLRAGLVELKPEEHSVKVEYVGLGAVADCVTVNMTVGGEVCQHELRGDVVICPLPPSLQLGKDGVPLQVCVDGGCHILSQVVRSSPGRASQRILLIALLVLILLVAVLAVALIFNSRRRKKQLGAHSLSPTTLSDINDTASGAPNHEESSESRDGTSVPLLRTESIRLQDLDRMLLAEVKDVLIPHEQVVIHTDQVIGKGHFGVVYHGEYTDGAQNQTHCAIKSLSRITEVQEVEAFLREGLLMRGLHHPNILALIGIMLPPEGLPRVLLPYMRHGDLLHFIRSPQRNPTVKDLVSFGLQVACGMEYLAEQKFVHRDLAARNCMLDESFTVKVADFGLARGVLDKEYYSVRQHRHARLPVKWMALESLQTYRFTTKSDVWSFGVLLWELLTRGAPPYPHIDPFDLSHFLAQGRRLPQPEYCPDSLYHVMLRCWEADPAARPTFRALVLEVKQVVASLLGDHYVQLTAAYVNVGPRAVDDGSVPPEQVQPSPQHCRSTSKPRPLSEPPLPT
# Chain of Tyrosine-protein kinase receptor UFO (P30530 whole entry): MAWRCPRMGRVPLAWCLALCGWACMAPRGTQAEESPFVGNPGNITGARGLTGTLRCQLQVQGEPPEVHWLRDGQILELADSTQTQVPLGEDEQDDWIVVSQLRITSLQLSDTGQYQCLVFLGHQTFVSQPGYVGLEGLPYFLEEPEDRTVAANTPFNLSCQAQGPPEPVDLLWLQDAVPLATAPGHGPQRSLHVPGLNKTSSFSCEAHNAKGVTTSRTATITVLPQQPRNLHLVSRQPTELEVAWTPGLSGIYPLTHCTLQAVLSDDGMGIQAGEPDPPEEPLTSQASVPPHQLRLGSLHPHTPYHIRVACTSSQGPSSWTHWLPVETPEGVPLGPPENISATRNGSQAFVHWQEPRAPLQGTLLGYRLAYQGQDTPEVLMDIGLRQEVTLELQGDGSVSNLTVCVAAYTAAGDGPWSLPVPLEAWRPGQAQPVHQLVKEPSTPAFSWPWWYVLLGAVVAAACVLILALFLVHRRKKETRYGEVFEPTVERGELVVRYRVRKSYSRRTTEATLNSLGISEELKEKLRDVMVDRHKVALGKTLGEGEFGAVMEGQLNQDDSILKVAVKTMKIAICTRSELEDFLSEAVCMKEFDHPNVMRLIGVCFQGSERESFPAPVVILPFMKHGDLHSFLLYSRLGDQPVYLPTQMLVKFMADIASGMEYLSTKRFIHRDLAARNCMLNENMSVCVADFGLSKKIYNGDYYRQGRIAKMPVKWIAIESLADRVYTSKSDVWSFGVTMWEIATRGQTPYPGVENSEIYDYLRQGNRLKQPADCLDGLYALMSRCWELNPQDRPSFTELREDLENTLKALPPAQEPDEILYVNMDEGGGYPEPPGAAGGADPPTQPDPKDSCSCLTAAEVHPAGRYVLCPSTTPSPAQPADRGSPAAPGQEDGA
smiles,measurement,setting,value
OCCn1cc(-c2cnc3nnn(Cc4ccc5ncccc5c4)c3n2)cn1 [PF-04217903],IC50,DLD-1,> 10 µM
same,inhibition,U-87MG ATCC [1],Active
same,inhibition in vivo at 5 mg/kg,GTL 16 cell line [2],75%
same,inhibition in vivo at 50 mg/kg/day,NCI-H292,39%
same,IC50,[3],> 10 µM
same,inhibition,GTL 16 [4],Dose-Dependent Effect
same,inhibition in vivo at 0.3 mg/kg,U-87 MG [5],20%
same,IC50,PC-3,> 10 µM
same,IC50,COLO 205,> 10 µM
same,IC50,HT-29 [6],> 10 µM
same,inhibition in vivo at 40 mg/kg/day,MDA-MB-231,43%
same,inhibition in vivo at 50 mg/kg/day,HT-29 [7],77%
same,inhibition,GTL 16 [8],Dose-Dependent Effect
same,IC50,[9],0.016 µM
same,inhibition in vivo at 40 mg/kg/day,SW-620 [10],45%
same,IC50,HUVEC [11],0.0123 µM
same,IC50,[12],> 10 µM
same,inhibition in vivo at 0.5 mg/kg,GTL 16 cell line [13],46%
same,inhibition,U-87MG ATCC [14],inactive
same,IC50,NCI-H441 [15],0.0125 µM
same,IC50,U-87 MG [16],> 10 µM
same,inhibition,SW-620 [17],Active
same,inhibition in vivo at 1.5 mg/kg,GTL 16 cell line [18],63%
same,inhibition in vivo at 30 mg/kg,U-87 MG [19],84%
same,IC50,NCI-H441 [20],0.011 µM
same,IC50,HUVEC [21],0.027 µM
same,IC50,MDA-MB-468,> 10 µM
same,inhibition,GTL 16 [22],Dose-Dependent Effect
same,inhibition,GTL 16 [23],Dose-Dependent Effect
same,inhibition in vivo at 10 mg/kg,GTL 16 cell line [24],90%
same,IC50,SW-620 [25],> 10 µM
same,IC50,[26],> 10 µM
same,inhibition,U-87MG ATCC [27],Active
